The values below come from patent US20250235543A1, “MODIFIED PROTEINS AND PROTEIN DEGRADERS” (Cullgen (Shanghai), Inc., priority 2021, published 2025).

The structures appear in SMILES notation. Like-named read-outs stand apart in the source and are kept apart here. Where only a bound is given, the exact number is not on record here.

One experiment has as its system cyclin D1. Description: Cyclin D1 percentage degradation in Calu-1 cells (immunoblotting). The experiment is classed as cell-based. The settings on record: 200 nM, 16 hours. The procedure, abridged: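 Cells were rinsed once in cold PBS and lysed in cold RIPA buffer containing protease and phosphatase inhibitors, with gentle agitation at 4° C. for 30 min. Lysates were spun at 13,000 rpm for 10 min at 4° C., protein was measured by BCA, and samples were boiled in Laemmli buffer at 99° C. for 5 min before SDS-PAGE immunoblotting.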

In a further experiment the target is T1, CDK4 (Homo sapiens, UniProt P11802).
T1 construct: endogenous in cells; host or cells: Calu-1
T1 sequence (P11802 2-303 limits assumed): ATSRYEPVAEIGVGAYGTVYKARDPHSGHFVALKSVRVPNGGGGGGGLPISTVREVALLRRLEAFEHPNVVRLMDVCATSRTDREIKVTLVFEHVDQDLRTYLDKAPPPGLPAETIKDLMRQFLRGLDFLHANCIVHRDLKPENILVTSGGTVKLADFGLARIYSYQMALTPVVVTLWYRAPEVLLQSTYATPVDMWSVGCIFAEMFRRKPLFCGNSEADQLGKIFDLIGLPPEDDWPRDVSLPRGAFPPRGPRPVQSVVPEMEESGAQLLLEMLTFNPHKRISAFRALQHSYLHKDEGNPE
T1 sequence (P24385 whole entry partner): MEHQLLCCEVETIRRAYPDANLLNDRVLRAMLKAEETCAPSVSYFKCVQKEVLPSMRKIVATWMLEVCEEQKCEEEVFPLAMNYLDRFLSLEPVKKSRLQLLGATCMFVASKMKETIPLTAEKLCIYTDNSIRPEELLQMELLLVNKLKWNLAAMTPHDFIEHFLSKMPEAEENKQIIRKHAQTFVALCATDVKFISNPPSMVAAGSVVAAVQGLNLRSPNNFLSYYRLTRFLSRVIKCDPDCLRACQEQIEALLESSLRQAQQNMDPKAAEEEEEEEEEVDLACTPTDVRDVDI
T1 sequence (Q16531 2-1140 limits assumed, further chain): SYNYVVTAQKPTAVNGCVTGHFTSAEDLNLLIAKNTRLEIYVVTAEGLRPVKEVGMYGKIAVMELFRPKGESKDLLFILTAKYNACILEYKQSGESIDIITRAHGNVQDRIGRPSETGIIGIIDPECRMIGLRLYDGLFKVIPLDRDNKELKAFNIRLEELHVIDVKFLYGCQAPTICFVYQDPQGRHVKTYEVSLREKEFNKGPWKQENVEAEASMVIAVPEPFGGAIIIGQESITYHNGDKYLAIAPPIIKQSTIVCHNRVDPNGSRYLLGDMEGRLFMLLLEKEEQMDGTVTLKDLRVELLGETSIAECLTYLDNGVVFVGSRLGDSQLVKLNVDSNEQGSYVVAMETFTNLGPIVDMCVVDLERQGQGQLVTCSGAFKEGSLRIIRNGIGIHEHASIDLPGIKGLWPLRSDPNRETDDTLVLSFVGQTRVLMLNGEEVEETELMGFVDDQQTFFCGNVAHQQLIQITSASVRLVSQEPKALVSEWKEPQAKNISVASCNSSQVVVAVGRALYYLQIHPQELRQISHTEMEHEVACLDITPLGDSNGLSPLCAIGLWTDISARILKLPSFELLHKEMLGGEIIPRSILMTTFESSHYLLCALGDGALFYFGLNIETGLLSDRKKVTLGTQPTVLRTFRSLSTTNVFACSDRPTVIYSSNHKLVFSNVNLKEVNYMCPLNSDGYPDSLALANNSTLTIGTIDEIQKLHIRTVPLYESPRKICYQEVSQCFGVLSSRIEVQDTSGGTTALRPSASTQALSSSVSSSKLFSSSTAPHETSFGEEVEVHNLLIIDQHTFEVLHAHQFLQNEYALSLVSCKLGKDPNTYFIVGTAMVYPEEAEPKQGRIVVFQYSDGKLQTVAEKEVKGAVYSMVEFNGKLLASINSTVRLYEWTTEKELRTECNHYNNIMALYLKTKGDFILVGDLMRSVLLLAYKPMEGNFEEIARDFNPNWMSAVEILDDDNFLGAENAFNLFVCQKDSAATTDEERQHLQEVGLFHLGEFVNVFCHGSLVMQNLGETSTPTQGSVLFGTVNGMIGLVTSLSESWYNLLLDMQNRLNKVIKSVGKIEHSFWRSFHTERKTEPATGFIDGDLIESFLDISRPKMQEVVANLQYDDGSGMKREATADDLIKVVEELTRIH
Kind of experiment: CDK4 percentage degradation in Calu-1 cells (immunoblotting). The experiment is classed as cell-based. The settings on record: read-out: CDK4 Degradation (200 nM). The method, boiled down: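 Cultured cells were rinsed once in cold PBS and lysed in cold RIPA buffer containing protease and phosphatase inhibitors, with gentle agitation at 4° C. for 30 min. Lysates were centrifuged at 13,000 rpm for 10 min at 4° C., and protein was quantified by BCA. Samples were then separated by SDS-PAGE, detected with ECL, and the CDK4 bands quantified in Image Lab.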

`CC(=O)c1c(C)c2cnc(Nc3ccc(N4CCN(CC(=O)NCCCCCCCCNc5cccc(C(=O)Nc6nc(C)c(C)s6)c5C)CC4)cn3)nc2n(C2CCCC2)c1=O` [CPD-090, 3-((8-(2-(4-(6-((6-Acetyl-8-cyclopentyl-5-methyl-7-oxo-7,8-dihydropyrido[2,3-d]pyrimidin-2-yl)amino)pyridin-3-yl)piperazin-1-yl)acetamido)octyl)amino)-N-(4,5-dimethylthiazol-2-yl)-2-methylbenzamide]: in the experiment with cyclin D1, the “CyclinD1 Degradation (200 nM)” value was “A (protein percentage degradation >=80%)”. On CDK4 (Calu-1 cells, 200 nM, 16 hours), the inhibition at 0.2 µM lay in the range of 50 to 80%.
For `CC(=O)c1c(C)c2cnc(Nc3ccc(N4CCN(C(=O)CCNc5ccc(C)c(C(=O)Nc6nc(C)c(C)s6)c5)CC4)cn3)nc2n(C2CCCC2)c1=O` [CPD-091, 5-((3-(4-(6-((6-Acetyl-8-cyclopentyl-5-methyl-7-oxo-7,8-dihydropyrido[2,3-d]pyrimidin-2-yl)amino)pyridin-3-yl)piperazin-1-yl)-3-oxopropyl)amino)-N-(4,5-dimethylthiazol-2-yl)-2-methylbenzamide], in the experiment on cyclin D1, the “CyclinD1 Degradation (200 nM)” value is “D (protein percentage degradation <30%)”. For the same molecule, the inhibition at 0.2 µM on CDK4 (Calu-1, 16 h) was less than 30%.
On to `CC(=O)c1c(C)c2cnc(Nc3ccc(N4CCN(CC(=O)NCCNc5cccc(C(=O)Nc6nc(C)c(C)s6)c5C)CC4)cn3)nc2n(C2CCCC2)c1=O` [CPD-092, 3-((2-(2-(4-(6-((6-Acetyl-8-cyclopentyl-5-methyl-7-oxo-7,8-dihydropyrido[2,3-d]pyrimidin-2-yl)amino)pyridin-3-yl)piperazin-1-yl)acetamido)ethyl)amino)-N-(4,5-dimethylthiazol-2-yl)-2-methylbenzamide], for which the “CyclinD1 Degradation (200 nM)” value in the experiment with cyclin D1 was “D (protein percentage degradation <30%)”. In addition, the inhibition at 0.2 µM at CDK4 (Calu-1 cells, 200 nM, 16 hours) was less than 30%.
In the same order, the values of `CC(=O)c1c(C)c2cnc(Nc3ccc(N4CCN(CC(=O)NCCNc5ccc(C)c(C(=O)Nc6nc(C)c(C)s6)c5)CC4)cn3)nc2n(C2CCCC2)c1=O` [CPD-093, 5-((2-(2-(4-(6-((6-Acetyl-8-cyclopentyl-5-methyl-7-oxo-7,8-dihydropyrido[2,3-d]pyrimidin-2-yl)amino)pyridin-3-yl)piperazin-1-yl)acetamido)ethyl)amino)-N-(4,5-dimethylthiazol-2-yl)-2-methylbenzamide] are “D (protein percentage degradation <30%)” and less than 30%.
As for `CC(=O)c1c(C)c2cnc(Nc3ccc(N4CCN(CC(=O)NCCCCCCNc5ccc(C)c(C(=O)Nc6nc(C)c(C)s6)c5)CC4)cn3)nc2n(C2CCCC2)c1=O` [CPD-094, 5-((6-(2-(4-(6-((6-Acetyl-8-cyclopentyl-5-methyl-7-oxo-7,8-dihydropyrido[2,3-d]pyrimidin-2-yl)amino)pyridin-3-yl)piperazin-1-yl)acetamido)hexyl)amino)-N-(4,5-dimethylthiazol-2-yl)-2-methylbenzamide], the “CyclinD1 Degradation (200 nM)” value in the experiment with cyclin D1 is reported as “D (protein percentage degradation <30%)”. At CDK4 (Calu-1 cells, 200 nM, 16 hours), the inhibition at 0.2 µM was less than 30%.
With `CC(=O)c1c(C)c2cnc(Nc3ccc(N4CCN(CC(=O)NCCCCCCCCNc5ccc(C)c(C(=O)Nc6nc(C)c(C)s6)c5)CC4)cn3)nc2n(C2CCCC2)c1=O` [CPD-095, 5-((8-(2-(4-(6-((6-Acetyl-8-cyclopentyl-5-methyl-7-oxo-7,8-dihydropyrido[2,3-d]pyrimidin-2-yl)amino)pyridin-3-yl)piperazin-1-yl)acetamido)octyl)amino)-N-(4,5-dimethylthiazol-2-yl)-2-methylbenzamide], the “CyclinD1 Degradation (200 nM)” value in the experiment with cyclin D1 is “D (protein percentage degradation <30%)”. The inhibition at 0.2 µM at CDK4 (Calu-1 cells, 200 nM, 16 hours) was less than 30%.
Taken in the same sequence, the figures for `CC(=O)c1c(C)c2cnc(Nc3ccc(N4CCN(CC(=O)NCCOCCNc5ccc(C)c(C(=O)Nc6nc(C)c(C)s6)c5)CC4)cn3)nc2n(C2CCCC2)c1=O` [CPD-096, 5-((2-(2-(2-(4-(6-((6-Acetyl-8-cyclopentyl-5-methyl-7-oxo-7,8-dihydropyrido[2,3-d]pyrimidin-2-yl)amino)pyridin-3-yl)piperazin-1-yl)acetamido)ethoxy)ethyl)amino)-N-(4,5-dimethylthiazol-2-yl)-2-methylbenzamide] were “D (protein percentage degradation <30%)” and less than 30%.
In the case of `CC(=O)c1c(C)c2cnc(Nc3ccc(N4CCN(CC(=O)NCCOCCOCCOCCOCCOCCNc5ccc(C)c(C(=O)Nc6nc(C)c(C)s6)c5)CC4)cn3)nc2n(C2CCCC2)c1=O` [CPD-097, 5-((1-(4-(6-((6-Acetyl-8-cyclopentyl-5-methyl-7-oxo-7,8-dihydropyrido[2,3-d]pyrimidin-2-yl)amino)pyridin-3-yl)piperazin-1-yl)-2-oxo-6,9,12,15,18-pentaoxa-3-azaicosan-20-yl)amino)-N-(4,5-dimethylthiazol-2-yl)-2-methylbenzamide], the “CyclinD1 Degradation (200 nM)” value in the experiment with cyclin D1 is recorded as “A (protein percentage degradation >=80%)”. Besides, the inhibition at 0.2 µM on CDK4 (Calu-1 cells, 200 nM, 16 hours) is 50 to 80%.
Consider `CC(=O)c1c(C)c2cnc(Nc3ccc(N4CCN(CC(=O)NCCCNc5cccc(C(=O)Nc6nc(C)c(C)s6)c5C)CC4)cn3)nc2n(C2CCCC2)c1=O` [CPD-098, 3-((3-(2-(4-(6-((6-Acetyl-8-cyclopentyl-5-methyl-7-oxo-7,8-dihydropyrido[2,3-d]pyrimidin-2-yl)amino)pyridin-3-yl)piperazin-1-yl)acetamido)propyl)amino)-N-(4,5-dimethylthiazol-2-yl)-2-methylbenzamide], for which the “CyclinD1 Degradation (200 nM)” value in the experiment on cyclin D1 is “D (protein percentage degradation <30%)”. At CDK4 (Calu-1 cells, 200 nM, 16 hours), the inhibition at 0.2 µM is less than 30%.
For the molecule `CC(=O)c1c(C)c2cnc(Nc3ccc(N4CCN(CC(=O)NCCCCNc5cccc(C(=O)Nc6nc(C)c(C)s6)c5C)CC4)cn3)nc2n(C2CCCC2)c1=O` [CPD-099, 3-((4-(2-(4-(6-((6-Acetyl-8-cyclopentyl-5-methyl-7-oxo-7,8-dihydropyrido[2,3-d]pyrimidin-2-yl)amino)pyridin-3-yl)piperazin-1-yl)acetamido)butyl)amino)-N-(4,5-dimethylthiazol-2-yl)-2-methylbenzamide], the “CyclinD1 Degradation (200 nM)” value with cyclin D1 was “D (protein percentage degradation <30%)”. Besides, the inhibition at 0.2 µM at CDK4 (Calu-1 cells, 200 nM, 16 hours) was less than 30%.
Regarding `CC(=O)c1c(C)c2cnc(Nc3ccc(N4CCN(CC(=O)NCCCCCNc5cccc(C(=O)Nc6nc(C)c(C)s6)c5C)CC4)cn3)nc2n(C2CCCC2)c1=O` [CPD-100, 3-((5-(2-(4-(6-((6-Acetyl-8-cyclopentyl-5-methyl-7-oxo-7,8-dihydropyrido[2,3-d]pyrimidin-2-yl)amino)pyridin-3-yl)piperazin-1-yl)acetamido)pentyl)amino)-N-(4,5-dimethylthiazol-2-yl)-2-methylbenzamide], the “CyclinD1 Degradation (200 nM)” value in the experiment with cyclin D1 was “D (protein percentage degradation <30%)”. The inhibition at 0.2 µM at CDK4 (Calu-1 cells, 200 nM, 16 hours) is less than 30%.
`CC(=O)c1c(C)c2cnc(Nc3ccc(N4CCN(CC(=O)NCCCCCCNc5cccc(C(=O)Nc6nc(C)c(C)s6)c5C)CC4)cn3)nc2n(C2CCCC2)c1=O` [CPD-101, 3-((6-(2-(4-(6-((6-Acetyl-8-cyclopentyl-5-methyl-7-oxo-7,8-dihydropyrido[2,3-d]pyrimidin-2-yl)amino)pyridin-3-yl)piperazin-1-yl)acetamido)hexyl)amino)-N-(4,5-dimethylthiazol-2-yl)-2-methylbenzamide]: the “CyclinD1 Degradation (200 nM)” value in the experiment on cyclin D1 was “A (protein percentage degradation >=80%)”. On CDK4 (Calu-1 cells, 200 nM, 16 hours), the inhibition at 0.2 µM fell in the range of 50 to 80%.
Taken in the same sequence, the figures for `CC(=O)c1c(C)c2cnc(Nc3ccc(N4CCN(CC(=O)NCCCCCCCNc5cccc(C(=O)Nc6nc(C)c(C)s6)c5C)CC4)cn3)nc2n(C2CCCC2)c1=O` [CPD-102, 3-((7-(2-(4-(6-((6-Acetyl-8-cyclopentyl-5-methyl-7-oxo-7,8-dihydropyrido[2,3-d]pyrimidin-2-yl)amino)pyridin-3-yl)piperazin-1-yl)acetamido)heptyl)amino)-N-(4,5-dimethylthiazol-2-yl)-2-methylbenzamide] were “A (protein percentage degradation >=80%)” and 50 to 80%.
For the molecule `CC(=O)c1c(C)c2cnc(Nc3ccc(N4CCN(CC(=O)NCCOCCNc5cccc(C(=O)Nc6nc(C)c(C)s6)c5C)CC4)cn3)nc2n(C2CCCC2)c1=O` [CPD-103, 3-((2-(2-(2-(4-(6-((6-Acetyl-8-cyclopentyl-5-methyl-7-oxo-7,8-dihydropyrido[2,3-d]pyrimidin-2-yl)amino)pyridin-3-yl)piperazin-1-yl)acetamido)ethoxy)ethyl)amino)-N-(4,5-dimethylthiazol-2-yl)-2-methylbenzamide], the “CyclinD1 Degradation (200 nM)” value in the experiment on cyclin D1 is “D (protein percentage degradation <30%)”. Moreover, at CDK4 (Calu-1 cells, 200 nM, 16 hours), the inhibition at 0.2 µM is less than 30%.
Consider `CC(=O)c1c(C)c2cnc(Nc3ccc(N4CCN(CC(=O)NCCOCCOCCNc5cccc(C(=O)Nc6nc(C)c(C)s6)c5C)CC4)cn3)nc2n(C2CCCC2)c1=O` [CPD-104, 3-((2-(2-(2-(2-(4-(6-((6-Acetyl-8-cyclopentyl-5-methyl-7-oxo-7,8-dihydropyrido[2,3-d]pyrimidin-2-yl)amino)pyridin-3-yl)piperazin-1-yl)acetamido)ethoxy)ethoxy)ethyl)amino)-N-(4,5-dimethylthiazol-2-yl)-2-methylbenzamide], for which the “CyclinD1 Degradation (200 nM)” value in the experiment with cyclin D1 is recorded as “A (protein percentage degradation >=80%)”. Further, the inhibition at 0.2 µM on CDK4 (Calu-1 cells, 200 nM, 16 hours) is 30 to 50%.
In the case of `CC(=O)c1c(C)c2cnc(Nc3ccc(N4CCN(CC(=O)NCCOCCOCCOCCNc5cccc(C(=O)Nc6nc(C)c(C)s6)c5C)CC4)cn3)nc2n(C2CCCC2)c1=O` [CPD-105, 3-((1-(4-(6-((6-Acetyl-8-cyclopentyl-5-methyl-7-oxo-7,8-dihydropyrido[2,3-d]pyrimidin-2-yl)amino)pyridin-3-yl)piperazin-1-yl)-2-oxo-6,9,12-trioxa-3-azatetradecan-14-yl)amino)-N-(4,5-dimethylthiazol-2-yl)-2-methylbenzamide], the “CyclinD1 Degradation (200 nM)” value in the experiment on cyclin D1 was “A (protein percentage degradation >=80%)”. The inhibition at 0.2 µM on CDK4 (Calu-1 cells, 200 nM, 16 hours) lay within 50 to 80%.
